Laboratory results from patent publication US10426751B2, “Allosteric activators for treatment of phenylketonuria” (MCMASTER UNIVERSITY, priority 2015, dated 2019).
Numbering of substitutions follows the chain as printed.

Columns and labels:
I65T PAH mutant = molecular target: T1, I65T PAH mutant (Homo sapiens, UniProt P00439, I65T); experiment: PKU-mutant activity enhancement without chemical denaturants, CE-UV; assay type: biochemical; details: ligand 20 μM, no denaturant
T1 construct: made in house; the paragraph itself says 'eukaryotic cell cultures' (pMAL vector)
T1 sequence (P00439 1-452 I65T): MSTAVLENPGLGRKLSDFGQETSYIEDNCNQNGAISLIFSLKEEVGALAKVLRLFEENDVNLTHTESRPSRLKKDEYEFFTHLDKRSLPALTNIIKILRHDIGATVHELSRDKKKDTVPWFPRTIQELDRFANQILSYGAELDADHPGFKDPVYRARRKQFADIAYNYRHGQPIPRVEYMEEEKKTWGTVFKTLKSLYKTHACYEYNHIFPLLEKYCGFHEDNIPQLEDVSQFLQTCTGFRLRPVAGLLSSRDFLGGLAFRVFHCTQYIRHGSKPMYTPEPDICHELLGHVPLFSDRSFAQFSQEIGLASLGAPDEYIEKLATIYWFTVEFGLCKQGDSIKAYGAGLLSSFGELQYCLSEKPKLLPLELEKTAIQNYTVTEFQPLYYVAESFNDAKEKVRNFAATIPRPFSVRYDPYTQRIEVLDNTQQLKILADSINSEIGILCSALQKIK
Experimental: (§1) Expression of recombinant human WT-PAH and two PAH mutants ([…]) as fusion protein with maltose-binding protein in […] using pMAL expression vector was performed by the Martinez laboratory at the University of Bergen as described in Svebak et al., Biochem. J., 1995, 306, 589-597. Briefly, purification of the fusion proteins expressed in the pMAL vector system was performed using affinity chromatography followed by size-exclusion chromatography to remove low molecular weight components. Subsequently, the fusion proteins were cleaved by the restriction protease factor Xa and then phosphorylated by cyclic adenosine monophosphate (cAMP)-dependent protein kinase. The two clinically relevant PAH mutants, I65T and R261Q comprise single-point mutations in the regulatory and catalytic domain, respectively which are associated with highly variable phenotypes ranging from mild to classical PKU. For instance, patients with R261Q genotypes are reported to have inconsistent responses to BH4 therapy. In this work, I65T and R261Q PAH mutants were measured to have residual catalytic activities of (35±1)% and (5±0.5)% relative to WT PAH under standardized conditions (i.e., enzyme concentrations, assay buffer etc.), respectively. Stock solutions of WT-PAH and PAH mutants were prepared in enzyme reaction buffer (20 mM HEPES pH 7.0, 200 mM NaCl), and divided into separate 10 μL aliquots in 0.5 mL sterilized centrifuge tubes prior to storage at −80° C. Note that all enzyme assays were performed on aliquots of frozen enzymes thawed slowly in the fridge prior to daily use.
(§2) Tetrameric human phenylalanine hydroxylase (PAH) enzyme kinetic assays were performed off-line under standardized conditions prior to quantification of Tyr formation by CE with UV detection. Enzyme assays were performed by first mixing together Phe (1 mM), catalase (100 nM) and PAH (0.25 μM/subunit) in a reaction buffer (20 mM HEPES and 200 mM NaCl, pH 7.0) that were equilibrated at 25° C. for 4 min. Then, ferrous (Fe^2+) ammonium sulfate (100 μM) was added to the solution for 1 min and the reaction was subsequently initiated by addition of BH4 ([…]) with DTT (5 mM) using a total volume of 100 μL. The reaction mixture was then vortexed for 60 s followed by sonication for 2 min prior to centrifugation for 10 s at 4 g and storage in a refrigerator (+4° C.). An aliquot (20 μL) was withdrawn from the quenched enzyme reaction and placed in a micro vial containing Me-Tyr as IS (100 μM) prior to CE analysis. The stability of the quenched enzyme reaction was confirmed by intermittent analysis of PAH activity over 6 h at room temperature, and no significant changes in the Tyr/IS or Phe/Tyr response ratio were measured. Enzymatic reactions were performed for both WT-PAH and two PAH mutants by pre-equilibrating each ligand for 10 min prior to addition of ferrous ion and BH4/DDT as described in enzyme reaction protocol in order to assess for ligand-induced PAH inhibition or activation.
(§3) For instance, a recovery of 50% of residual enzyme activity was achieved without ligand when PAH was incubated in 8.0 M urea after its dilution to 0.5 M urea to trigger protein refolding. In order to further reduce enzyme reversibility, the recovery of PAH activity was subsequently assessed when it was incubated using 6.0 M GndCl for 10 min and subsequently diluted to 0.5 M GndCl in the presence or absence of screen-positive ligands (20 μM) in enzyme reaction buffer with PAH activity measurements performed by CE as described previously. […] Two lead compounds and several analogs of SA were subsequently tested using two different mutants of PAH (I65T and R261Q) without chemical denaturants after the two-tiered screening.

R261Q PAH mutant = molecular target: T2, R261Q PAH mutant (Homo sapiens, UniProt P00439, R261Q); experiment: as above; assay type: biochemical; details: ligand 20 μM, no denaturant
T2 construct: made in house; the paragraph itself says 'eukaryotic cell cultures' (pMAL vector)
T2 sequence (P00439 1-452 R261Q): T1 sequence (P00439 1-452 I65T) with T65I, R261Q
Experimental: as §1, §2, §3

PAH = molecular target: T3, PAH (Homo sapiens, UniProt P00439); details: read-out: Ki (weak competitive inhibitor to PAH); cited from earlier work
T3 sequence (P00439 1-452): T1 sequence (P00439 1-452 I65T) with T65I

Compound	activity enhancement of I65T PAH mutant (I65T PAH mutant; listed as HI) [fold]	activity enhancement of R261Q PAH mutant (R261Q PAH mutant; listed as HI) [fold]	activity enhancement of I65T PAH mutant (I65T PAH mutant) [fold]	activity enhancement of R261Q PAH mutant (R261Q PAH mutant) [fold]	Ki (PAH) [µM]
Nc1c(-c2ccc3ccccc3n2)c2ccc([N+](=O)[O-])cc2c(=O)n1Cc1ccccc1 [compound III, 3-amino-2-benzyl-7-nitro-4-(2-quinolyl)-1,2-dihydroisoquinolin-1-one]	~1.5	~1.5	–	–	–
Cc1ccnc(-n2c(=S)[nH]c3sc(C)c(C)c3c2=O)c1 [compound IV, 5,6-dimethyl-3-(4-methyl-2-pyridinyl)-2-thioxo-2,3-dihydrothieno[2,3-d] pyrimidin-4(1H)-one]	–	–	~1.5	~1.5	200
